Test results taken from patent US20040106540A1, “Method of treating cancer” (priority 2003, published 2004).

Assays:
Format in all cases: biochemical
[1] = target: T1, Akt3 (Homo sapiens, UniProt Q9Y243); test: Akt kinase assay, phosphorylation of GSK3-derived peptide; conditions: GSK3 peptide substrate
T1 construct: a middle T tag was added to the 5′ end of the full length Akt3 clone; middle T tag (EYMPME) (N); biotin tag (from pS2neo vector); made in house; host or cells: Drosophila S2 cells
Protocol: (§1) The ^33P-labeled biotinylated product can be captured and detected using Streptavidin coated Flashplates (NEN LifeSciences) or Streptavidin Membrane Filter Plates (Promega).
(§2) The reactions were then incubated at room temperature for 45 minutes.
(§3) 200 μl of stopped reaction was transferred to a Streptavidin Flashplate® PLUS (NEN Life Sciences, catalog no. SMP103). The plate was incubated for ≧10 minutes at room temperature on a plate shaker. The contents of each well was aspirated, and the wells rinsed 2 times with 200 μl TBS per well. The wells were then washed 3 times for 5 minutes with 200 μl TBS per well with the plates incubated at room temperature on a platform shaker during wash steps.
(§4) The plates were covered with sealing tape and counted using the Packard TopCount with the appropriate settings for counting [^33P] in Flashplates.
(§5) The enzymatic reactions as described in Step I of the Streptavidin Flash Plate Assay above were performed.
(§6) The reaction was stopped by adding 20 μl of 7.5M Guanidine Hydrochloride.
(§7) The plate was then washed using a vacuum manifold as follows: 1) 4×200 μl/well of 2M NaCl; 2) 6×200 μl/well of 2M NaCl with 1% H3PO4; 3)2×200 μl/well of diH20; and 4)2×100 μl/well of 95% Ethanol. The membranes were then allowed to air dry completely before adding scintillant.
The top of the plate was sealed with clear sealing tape, and the plate then counted using the Packard TopCount with the appropriate settings for [^33P] with liquid scintillant. […]

[2] = target: T2, Akt2 (Homo sapiens, UniProt P31751); test: as above; conditions: GSK3 peptide substrate
T2 construct: a middle T tag was added to the 5′ end of the full length Akt2; middle T tag (EYMPME) (N); biotin tag (from pS2neo vector); made in house; host or cells: Drosophila S2 cells
Source text: as §1
(§8) GSK3α (S21) Peptide #3928, biotin-[…] PG (SEQ.ID.NO.: 15), FW=1517.8 (obtained from Macromolecular Resources) for Streptavidin Flashplate or Streptavidin Filter Plate detection.
(§9) GSK3α (S21) Peptide #G80613, […] (SEQ.ID.NO.: 16), FW=1547.8 (obtained from Research Genetics) for Phosphocellulose filter plate detection.
as §2, §3, §4, §5, §6, §7
(§10) The bottom of the plate was sealed with white backing tape, 30 μl/well of Microscint 20 (Packard Instruments, catalog no. 6013621) was added. The top of the plate was sealed with clear sealing tape, and the plate then counted using the Packard TopCount with the appropriate settings for [^33P] with liquid scintillant.
(§11) The enzymatic reactions were performed as described in Step 1 of the Streptavidin Flash Plate Assay (above) utilizing […] (SEQ.ID. NO.: 16) as the substrate in place of biotin-[…].
(§12) The reaction was stopped by adding 20 μl of 0.75% H3PO4.
(§13) The bottom of the plate was sealed with white backing tape, then 30 μl/well of Microscint 20 was added. The top of the plate was sealed with clear sealing tape, and the plate counted using the Packard TopCount with the appropriate settings for [^33P] and liquid scintillant.

[3] = target: T3, active human Akt1 (Homo sapiens, UniProt P31749); test: as above; conditions: GSK3 peptide substrate; read-out: GSK3 Peptide Substrate IC50 (μM) Akt-1
T3 construct: purchased Upstate Biotechnology 14-276
Source text: as §1, §8, §9, §2, §3, §4, §5, §6, §7, §10, §11, §12, §13

[4] = target: T4, PKA catalytic subunit (Bos taurus, UniProt P00517); test: PKA assay (counter screen), Kemptide phosphorylation; conditions: read-out: Counter screens IC50 (μM) PKA
T4 construct: purchased UBI (Upstate Biotechnology) 14-114
Protocol: Each individual PKA assay consists of the following components:
1) 10 μl 5× PKA assay buffer (200 mM Tris pH7.5, 100 mM MgCl2, 5 mM 2-mercaptoethanol, 0.5 mM EDTA)
2) 10 μl of a 50 μM stock of Kemptide (Sigma) diluted into water
3) 10 μl ^33P-ATP (prepared by diluting 1.0 μl ^33P-ATP [10 mCi/ml] into 200 μl of a 50 μM stock of unlabeled ATP)
4) 10 μl appropriate solvent control dilution or inhibitor dilution
Assays were assembled in 96 deep-well assay plates. Components #3 and #4 were premixed and in a separate tube, a mixture containing equal volumes of components #1, #2, and #5 was prepared. The assay reaction was initiated by adding 30 μl of the components #1, #2, and #5 mixture to wells containing ^33P-ATP and inhibitor. The liquid in the assay wells was mixed and the assay reactions incubated for 20 minutes at room temperature. The reactions were stopped by adding 50 μl 100 mM EDTA and 100 mM sodium pyrophosphate and mixing.
The enzyme reaction product (phosphorylated Kemptide) was quantitated using p81 phosphocellulose 96 well filter plates (Millipore). Each well of a p81 filter plate was fill with 75 mM phosphoric acid. The wells were aspirated and 170 μl of 75 mM phosphoric acid was added to each well. […] The peptide was trapped on filter following the application of a vacuum. The filters were washed 5× by filling wells with 75 mM phosphoric acid followed by aspiration. After the final wash, the filters were allowed to air dry. 30 μl scintillation fluid was added to each well and the filters counted on a TopCount (Packard).

[5] = target: T5, delta PH-Akt1 (Homo sapiens, UniProt P31749); test: Akt kinase assay, phosphorylation of GSK3-derived peptide (PH domain deleted mutant); conditions: GSK3 peptide substrate; Akt1 lacking PH domain; read-out: GSK3 Peptide Substrate IC50 (μM) Akt-1 delta PH
T5 construct: PCR deletion mutagenesis was done using the full length Akt1 gene in the pS2neo vector as template; middle T tag (EYMPME) (N); biotin tag (from pS2neo vector); made in house; host or cells: Drosophila S2 cells
Source text: For the expression of a pleckstrin homology domain (PH ) deleted (Δ aa 4-129, which includes deletion of a portion of the Akt1 hinge region) version of Akt1, PCR deletion mutagenesis was done using the full length Akt1 gene in the pS2neo vector as template. […] The final PCR product was digested with KpnI and SmaI and ligated into the pS2neo full length Akt1 KpnI/Sma I cut vector, effectively replacing the 5′ end of the clone with the deleted version.
as §1, §8, §9, §2, §3, §4, §5, §6, §7, §10, §11, §12, §13

[6] = tested on: PKC (mix of isoforms); test: PKC assay (counter screen), myelin basic protein phosphorylation; conditions: read-out: Counter screens IC50 (μM) PKC
Protocol: Each PKC assay consists of the following components:
1) 5 μl 10×PKC co-activation buffer (2.5 mM EGTA, 4 mM CaCl2)
2) 10 μl 5×PKC activation buffer (1.6 mg/ml phosphatidylserine, 0.16 mg/ml diacylglycerol, 100 mM Tris pH 7.5, 50 mM MgCl, 5 mM 2-mercaptoethanol)
3) 5 μl ^33P-ATP (prepared by diluting 1.0 μl ^33P-ATP [10 mCi/nil] into 100 μl of a 100 μM stock of unlabeled ATP)
4) 10 μl of a 350 μg/ml stock of myelin basic protein (MBP, UBI) diluted in water
5) 10 μl appropriate solvent control or inhibitor dilution
Final assay concentrations were as follows: 0.25 mM EGTA, 0.4 mM CaCl, 20 mM Tris pH 7.5, 10 mM MgCl, 1 mM 2-mercaptoethanol, 0.32 mg/ml phosphatidylserine, 0.032 mg/mil diacylglycerol, 10 μM 33P-ATP, 70 μg/ml MBP, 10 ng/ml PKC, 0.1 mg/ml BSA.
Assays are performed using 96 deep well assay plates. In each assay well 10 μl of solvent control or appropriate inhibitor dilution with 5 μl ^33P-ATP (components #5 and #3) were premixed. […] The liquid in the assay wells was thoroughly mixed and the assay reactions incubated for 20 minutes at room temperature. The reactions were stopped by adding 100 mM EDTA (50 μl) and 100 mM sodium pyrophosphate (50 μl) and mixing. Phosphorylated MBP was collected on PVDF membranes in 96 well filter plates and quantitated by scintillation counting.

T5 sequence (P31749 with tags, fused parts or gaps): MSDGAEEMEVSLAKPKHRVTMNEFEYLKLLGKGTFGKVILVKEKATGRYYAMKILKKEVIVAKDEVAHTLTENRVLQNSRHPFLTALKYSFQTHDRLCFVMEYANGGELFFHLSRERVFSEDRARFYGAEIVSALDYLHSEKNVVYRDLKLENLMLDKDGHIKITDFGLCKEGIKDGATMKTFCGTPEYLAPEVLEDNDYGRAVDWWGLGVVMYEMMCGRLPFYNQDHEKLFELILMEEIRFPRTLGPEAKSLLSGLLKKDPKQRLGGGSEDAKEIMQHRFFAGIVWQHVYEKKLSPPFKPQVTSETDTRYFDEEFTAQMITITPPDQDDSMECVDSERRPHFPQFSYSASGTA
T1 sequence (Q9Y243 whole entry): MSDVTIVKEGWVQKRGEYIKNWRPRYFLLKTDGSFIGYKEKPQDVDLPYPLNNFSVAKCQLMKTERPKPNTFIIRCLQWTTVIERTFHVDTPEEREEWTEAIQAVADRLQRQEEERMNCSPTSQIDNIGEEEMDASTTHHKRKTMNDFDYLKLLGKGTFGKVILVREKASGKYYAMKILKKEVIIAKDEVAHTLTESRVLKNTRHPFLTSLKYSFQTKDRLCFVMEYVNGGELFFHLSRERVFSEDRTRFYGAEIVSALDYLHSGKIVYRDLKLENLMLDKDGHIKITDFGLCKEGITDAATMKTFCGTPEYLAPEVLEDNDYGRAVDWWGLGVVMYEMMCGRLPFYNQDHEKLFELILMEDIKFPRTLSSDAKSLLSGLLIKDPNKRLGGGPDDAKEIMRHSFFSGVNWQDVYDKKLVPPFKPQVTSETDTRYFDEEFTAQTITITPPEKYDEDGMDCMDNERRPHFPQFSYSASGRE
T2 sequence (P31751 whole entry): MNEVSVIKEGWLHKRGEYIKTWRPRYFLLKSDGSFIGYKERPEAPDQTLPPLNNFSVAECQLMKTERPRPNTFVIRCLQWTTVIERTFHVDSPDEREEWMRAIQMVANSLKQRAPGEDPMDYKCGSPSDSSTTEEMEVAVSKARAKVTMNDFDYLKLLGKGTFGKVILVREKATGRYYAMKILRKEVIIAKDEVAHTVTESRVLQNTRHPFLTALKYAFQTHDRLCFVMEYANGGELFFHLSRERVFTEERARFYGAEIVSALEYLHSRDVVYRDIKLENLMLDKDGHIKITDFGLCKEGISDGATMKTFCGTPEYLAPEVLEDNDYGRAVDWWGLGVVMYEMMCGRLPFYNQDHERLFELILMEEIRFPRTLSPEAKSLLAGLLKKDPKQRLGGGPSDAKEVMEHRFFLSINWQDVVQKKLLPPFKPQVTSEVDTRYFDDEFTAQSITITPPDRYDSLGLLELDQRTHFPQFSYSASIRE
T3 sequence (P31749 whole entry): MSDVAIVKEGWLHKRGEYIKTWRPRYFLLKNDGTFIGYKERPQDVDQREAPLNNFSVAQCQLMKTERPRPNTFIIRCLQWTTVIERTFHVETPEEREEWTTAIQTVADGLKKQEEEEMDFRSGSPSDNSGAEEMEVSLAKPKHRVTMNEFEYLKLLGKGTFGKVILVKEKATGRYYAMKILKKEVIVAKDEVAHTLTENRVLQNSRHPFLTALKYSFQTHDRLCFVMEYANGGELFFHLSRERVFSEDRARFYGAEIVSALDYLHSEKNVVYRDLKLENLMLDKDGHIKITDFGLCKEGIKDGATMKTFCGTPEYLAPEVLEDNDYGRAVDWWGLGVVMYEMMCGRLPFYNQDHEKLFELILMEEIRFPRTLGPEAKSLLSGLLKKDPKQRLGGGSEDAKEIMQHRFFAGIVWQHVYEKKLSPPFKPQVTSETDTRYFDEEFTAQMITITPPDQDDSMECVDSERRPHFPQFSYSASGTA

Row | Compound | IC50 [1] | IC50 [2] | IC50 [3] | IC50 [4] | IC50 [5] | IC50 [6]
1 | CN(C)CC(C)(C)CNc1nn2c(-c3cc(F)cc(F)c3)nnc2cc1C1CCC1 [Compound 2, N′-(7-Cyclobutyl-3-(3,5-difluoro-phenyl)-[1,2,4]triazolo[4,3-b]pyridazin-6-yl)-2,2,N,N-tetramethyl-propane-1,3-diamine] | > 50 µM | > 50 µM | 0.42 µM | > 40 µM | > 50 µM | > 40 µM
2 | CN(C)CC(C)(C)CNc1nn2c(-c3ccc(F)c(F)c3)nnc2cc1C1CCC1 [Compound 3, N′-(7-Cyclobutyl-3-(3,4-difluoro-phenyl)-[1,2,4]triazolo[4,3-b]pyridazin-6-yl)-2,2,N,N-tetramethyl-propane-1,3-diamine] | > 50 µM | > 50 µM | 0.91 µM | > 40 µM | > 50 µM | > 40 µM
3 | OCCOc1nn2c(-c3ccccc3)nnc2cc1-c1ccccc1 [Compound 8, 6-(2-Hydroxyethyl)oxy-3 7-diphenyl-[1,2,4]triazolo[4,3-b]pyridazine] |  |  | 15.9 µM | > 40 µM |  | > 40 µM
4 | CN(C)CC(C)(C)CNc1nn2c(-c3ccccc3)nnc2cc1C1CCC1 [Compound 1, N′-(7-Cyclobutyl-3-phenyl-[1,2,4]triazolo[4,3-b]pyridazin-6-yl)-2,2,N,N-tetramethyl-propane-1,3-diamine] | > 50 µM | > 50 µM | 1.4 µM | > 40 µM | > 50 µM | > 40 µM
5 | Nc1ccc(-c2nc3ccccc3nc2-c2ccc(N)cc2)cc1 [Compound 11, 2,3-bis(4-aminophenyl)-quinoxaline] | > 100 µM | 45 µM | 6.1 µM | > 80 µM | > 50 µM | > 80 µM
6 | 6-(2-Hydroxybutyl)oxy-3,7-diphenyl-[1,2,4]triazolo[4,3-b]pyridazine [Compound 9] | > 50 µM | > 50 µM | 4.65 µM | > 40 µM | > 50 µM | > 40 µM
7 | CN(C)CC(C)(C)CNc1nn2c(-c3ccc(F)cc3)nnc2cc1C1CCC1 [Compound 4, N′-(7-Cyclobutyl-3-(4-fluoro-phenyl)-[1,2,4]triazolo[4,3-b]pyridazin-6-yl)-2,2,N,N-tetramethyl-propane-1,3-diamine] | > 50 µM | > 50 µM | 2.03 µM | > 40 µM | > 50 µM | > 40 µM
8 | COc1ccc(-c2nnc3c4ccccc4c(NCC(C)(C)CN(C)C)nn23)cc1 [Compound 7, N′-[3-(4-Methoxy-phenyl)-[1,2,4]triazolo[4,3-a]phthalazin-6-yl)-2,2,N,N-tetramethyl-propane-1,3-diamine] | > 50 µM | > 50 µM | 3.88 µM | > 40 µM | > 50 µM | > 40 µM
9 | CN(C)CC(C)(C)CNc1nn2c(-c3ccccc3)nnc2c2ccccc12 [Compound 6, 2,2,N,N-tetramethyl-N-(3-phenyl-[1,2,4]triazolo[3,4-a]phthalazin-6-yl)-propane-1,3-diamine] | > 50 µM | > 50 µM | 10.5 µM | > 40 µM | > 50 µM | > 40 µM
10 | CN(C)CC(C)(C)CNc1nn2c(-c3cccc(F)c3)nnc2cc1C1CCC1 [Compound 5, N′-(7-Cyclobutyl-3-(3-fluoro-phenyl)-[1,2,4]triazolo[4,3-b]pyridazin-6-yl)-2,2,N,N-tetramethyl-propane-1,3-diamine] | > 50 µM | > 50 µM | 0.4 µM | > 40 µM | > 50 µM | > 40 µM
